Laboratory results reported in patent publication US20220110888A1, “COMPOSITION FOR THE TREATMENT OF PSORIASIS” (Charlotte's Web, Inc., priority 2020, published 2022).

Test: Systemic exposure to CBD after dermal application

## C=C(C)[C@@H]1CCC(C)=C[C@H]1c1c(O)cc(CCCCC)cc1O [CBD, cannabidiol]
  reach of the bloodstream / systemic circulation: does not reach the bloodstream
